Measurements published in patent US20140107109A1, “AMINO-DIHYDROTHIAZINE AND AMINO-DIOXIDO DIHYDROTHIAZINE COMPOUNDS AS BETA-SECRETASE ANTAGONISTS AND METHODS OF USE” (Amgen Inc., priority 2012, published 2014).
Where two headings read alike, the source gives them in different places.

How the values were obtained:
[1] = molecular target: Beta Secretase enzyme (BACE1) (Homo sapiens, UniProt P56817); assay: In vitro enzymatic BACE FRET assay; format: biochemical; conditions: read-out: BACE1 FRET assay IC50
Chain of Beta Secretase enzyme (BACE1) (P56817 46-501): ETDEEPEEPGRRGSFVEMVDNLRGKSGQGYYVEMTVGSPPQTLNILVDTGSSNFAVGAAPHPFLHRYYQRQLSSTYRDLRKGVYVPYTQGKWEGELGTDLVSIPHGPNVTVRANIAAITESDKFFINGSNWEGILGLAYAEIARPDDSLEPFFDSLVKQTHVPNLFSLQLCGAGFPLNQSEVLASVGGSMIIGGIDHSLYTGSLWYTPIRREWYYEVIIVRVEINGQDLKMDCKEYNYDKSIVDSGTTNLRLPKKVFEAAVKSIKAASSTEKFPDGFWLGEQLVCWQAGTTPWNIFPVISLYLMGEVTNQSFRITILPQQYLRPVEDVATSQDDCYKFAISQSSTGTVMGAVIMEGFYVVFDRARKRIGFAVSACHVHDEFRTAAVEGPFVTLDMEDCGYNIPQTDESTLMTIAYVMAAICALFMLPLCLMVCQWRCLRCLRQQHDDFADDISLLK
Outline: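 BACE1 cleavage of a 50 nM fluorophore/quencher peptide FRET substrate ran for one hour in 0.05 M acetate pH 4.2, 10% DMSO, 100 uM genapol. Tris buffer raised pH to neutrality to stop the reaction before fluorescence was read (excitation 488 nm, […]).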

[2] = test system: Aβ40 in conditioned medium of cells stably expressing Amyloid Precursor Protein (APP); assay: In vitro BACE cell-based assay (HEK cell assay), Aβ40 sandwich ELISA; conditions: Homo sapiens, HEK293
Outline: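 APP-stably expressing cells (40K/well, grown 24 h in DMEM/10% FBS) were treated 24 h with compounds in 10-point dose response starting at 100 μM or 10 μM, 0.1% DMSO final. Secreted Aβ40 was measured by sandwich ELISA (pAb40 capture, biotinylated 6E10 detection, europium time-resolved fluorescence); IC50 from percent inhibition.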

Cathepsin D (Cat D) = molecular target: T1, Cathepsin D (Cat D) (Homo sapiens, UniProt P07339); assay: In vitro enzymatic Cathepsin D (Cat D) FRET assay; format: biochemical; conditions: read-out: CatD IC50
T1 construct: Recombinant Cat D was expressed in CHO cells; made in house; host or cells: CHO cells
T1 sequence (P07339 65-412, species assumed): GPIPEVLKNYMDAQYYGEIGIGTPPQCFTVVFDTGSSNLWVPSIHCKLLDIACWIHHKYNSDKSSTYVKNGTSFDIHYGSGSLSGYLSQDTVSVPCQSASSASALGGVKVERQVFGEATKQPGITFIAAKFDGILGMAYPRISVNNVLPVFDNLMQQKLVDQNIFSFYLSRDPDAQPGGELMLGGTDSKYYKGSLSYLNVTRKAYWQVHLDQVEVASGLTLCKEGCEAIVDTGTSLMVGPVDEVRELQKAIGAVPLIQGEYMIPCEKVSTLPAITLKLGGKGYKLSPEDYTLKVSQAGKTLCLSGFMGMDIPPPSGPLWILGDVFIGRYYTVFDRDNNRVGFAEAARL
Outline: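 Recombinant Cat D expressed in CHO cells, used at 9 nM and pre-incubated one hour with serially diluted inhibitor in DMSO. Peptide substrate carries a fluorophore and quencher flanking the cleavage site; reaction stopped with Tris buffer raising pH to neutrality, then fluorescence read.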

SMILES | IC50 [1] | IC50 [2] | IC50 (Cathepsin D (Cat D)) | IC50 ([1]; average IC50, enzyme assay) | IC50 ([2]; average IC50, cell assay) | IC50 ([2]; average IC50, HEK cell assay)
COc1cnc2c(Nc3ccc(F)c([C@]4(C)CS(=O)(=O)C5(CC(F)(F)C5)C(N)=N4)c3)nccc2n1 [Example 128, (R)-9-amino-2,2-difluro-7-(2-fluoro-5-((2-methoxypyrido[3,4b]pyrazin-5-yl)amino)phenyl)-7-methyl-5-thia-8-azaspiro[3.5]non-8-ene 5,5-dioxide] | – | – | 330 µM | 0.0259 µM | 0.199 µM | –
C[C@]1(c2cc(NC(=O)c3ccc(Cl)cn3)ccc2F)N=C(N)C2(CCC2)S(=O)(=O)[C@@H]1F [Example 131, N-(3-((6S,7R)-9-amino-6-fluoro-7-methyl-5,5-dioxido-5-thia-8-azaspiro[3.5]non-8-en-7-yl)-4-fluorophenyl)-5-chloropicolinamide] | 0.0016 µM | 0.00901 µM | 162 µM | – | – | –
Cc1cc(C(F)F)cnc1C(=O)Nc1ccc(F)c([C@@]2(C)N=C(N)C3(CCC3)S(=O)(=O)[C@@H]2F)c1 [Example 136, N-(3-((6S,7R)-9-amino-6-fluoro-7-methyl-5,5-dioxido-5-thia-8-azaspiro[3.5]non-8-en-7-yl)-4-fluorophenyl)-5-(difluoromethyl)-3-methylpicolinamide] | 0.0021 µM | 0.0049 µM | 236 µM | – | – | –
COc1cc(Cl)cnc1C(=O)Nc1ccc(F)c([C@@]2(C)N=C(N)C3(CCC3)S(=O)(=O)[C@@H]2F)c1 [Example 139, N-(3-((6S,7R)-9-amino-6-fluoro-7-methyl-5,5-dioxido-5-thia-8-azaspiro[3.5]non-8-en-7-yl)-4-fluorophenyl)-5-chloro-3-methoxypicolinamide] | 0.0038 µM | 0.0118 µM | 408 µM | – | – | –
C[C@]1(c2cc(NC(=O)c3cnc(C(F)F)cn3)ccc2F)N=C(N)C2(CCC2)S(=O)(=O)[C@@H]1F [Example 140, N-(3-((6S,7R)-9-amino-6-fluoro-7-methyl-5,5-dioxido-5-thia-8-azaspiro[3.5]non-8-en-7-yl)-4-fluorophenyl)-5-(difluoromethyl)pyrazine-2-carboxamide] | 0.0088 µM | 0.0146 µM | > 400 µM | – | – | –
Cc1cc(OC(F)F)cnc1C(=O)Nc1ccc(F)c([C@]2(C)CS(=O)(=O)C(C)(C)C(N)=N2)c1 [Example 144, (R)—N-(3-(5-amino-3,6,6-trimethyl-1,1-dioxido-3,6-dihydro-2H-1,4-thiazin-3-yl)-4-fluorophenyl)-5-(difluoromethoxy)-3-methylpicolinamide] | 0.0006 µM | 0.0016 µM | 96.7 µM | – | – | –
C[C@@]1(c2cc(Br)ncc2F)CS(=O)(=O)C2(CCC2)C(N)=N1 [Example 147, (R)-9-amino-7-(2-bromo-5-fluoropyridin-4-yl)-7-methyl-5-thia-8-azaspiro[3.5]non-8-ene 5,5-dioxide] | – | – | 43.5 µM | 17 µM | > 15.6 µM | –
Cc1cc(OC(F)F)cnc1C(=O)Nc1ccc(F)c([C@]2(CF)CS(=O)(=O)C(C)(C)C(N)=N2)c1 [Example 148, (S)—N-(3-(5-amino-3-(fluoromethyl)-6,6-dimethyl-1,1-dioxido-3,6-dihydro-2H-1,4-thiazin-3-yl)-4-fluorophenyl)-5-(difluoromethoxy)-3-methylpicolinamide] | 0.00163 µM | 0.0091 µM | 213 µM | – | – | –
Cc1cc(OCCF)cnc1C(=O)Nc1ccc(F)c([C@]2(CF)CS(=O)(=O)C(C)(C)C(N)=N2)c1 [Example 149, (S)—N-(3-(5-amino-3-(fluoromethyl)-6,6-dimethyl-1,1-dioxido-3,6-dihydro-2H-1,4-thiazin-3-yl)-4-fluorophenyl)-5-(2-fluoroethoxy)-3-methylpicolinamide] | – | – | 855 µM | 0.00271 µM | 0.0651 µM | –
Cc1cc(OC2COC2)cnc1C(=O)Nc1ccc(F)c([C@]2(CF)CS(=O)(=O)C(C)(C)C(N)=N2)c1 [Example 150, (S)—N-(3-(5-amino-3-(fluoromethyl)-6,6-dimethyl-1,1-dioxido-3,6-dihydro-2H-1,4-thiazin-3-yl)-4-fluorophenyl)-3-methyl-5-(oxetan-3-yloxy)picolinamide] | – | – | 622 µM | 0.0445 µM | 0.528 µM | –
Cc1c(CNc2ccc(F)c([C@]3(C)CS(=O)(=O)C(C)(C)C(N)=N3)c2)nc2ccc(Cl)cn12 [Example 152, (R)-5-amino-3-(5-(((6-chloro-3-methylimidazo[1,2-a]pyridin-2-yl)methyl)amino)-2-fluorophenyl)-3,6,6-trimethyl-3,6-dihydro-2H-1,4-thiazine 1,1-dioxide] | – | – | 1460 µM | 2.94 µM | 0.302 µM | –
COc1cnc(C(=O)Nc2ccc(F)c([C@]3(CF)CS(=O)(=O)C(C)(C)C(N)=N3)c2)c(OC)n1 [Example 155, (S)—N-(3-(5-amino-3-(fluoromethyl)-6,6-dimethyl-1,1-dioxido-3,6-dihydro-2H-1,4-thiazin-3-yl)-4-fluorophenyl)-3,5-dimethoxypyrazine-2-carboxamide] | – | – | 470 µM | 0.0043 µM | 0.0351 µM | –

Next, values leading:

IC50 [1] | IC50 [2] | IC50 (Cathepsin D (Cat D)) | IC50 ([1]; average IC50, enzyme assay) | IC50 ([2]; average IC50, cell assay) | IC50 ([2]; average IC50, HEK cell assay) | SMILES
0.00457 µM | 0.0063 µM | 150 µM | – | – | – | Cc1cc(C(F)F)cnc1C(=O)Nc1ccc(F)c([C@]2(C)CS(=O)(=O)C3(CCC3)C(N)=N2)c1 [Example 123, (R)—N-(3-(9-amino-7-methyl-5,5-dioxido-5-thia-8-azaspiro[3.5]non-8-en-7-yl)-4-fluorophenyl)-5-(difluoromethyl)-3-methylpicolinamide]
< 0.002 µM | 0.0246 µM | 96.3 µM | – | – | – | Cc1cc(Cl)cnc1C(=O)Nc1ccc(F)c([C@]2(C)CS(=O)(=O)C3(CC(F)(F)C3)C(N)=N2)c1 [Example 124, (R)—N-(3-(9-amino-2,2-difluoro-7-methyl-5,5-dioxido-5-thia-8-azaspiro[3.5]non-8-en-7-yl)-4-fluorophenyl)-5-chloro-3-methylpicolinamide]
0.001 µM | 0.0107 µM | 42.8 µM | – | – | – | C[C@@]1(c2cc(NC(=O)c3ccc(Cl)cn3)ccc2F)CS(=O)(=O)[C@]2(C[C@@H](F)C2)C(N)=N1 [Example 125, N-(3-((2S,4s,7R)-9-amino-2-fluoro-7-methyl-5,5-dioxido-5-thia-8-azaspiro[3.5]non-8-en-7-yl)-4-fluorophenyl)-5-chloropicolinamide]
0.00376 µM | 0.0177 µM | 45.6 µM | – | – | – | Cc1cc(OC(F)F)cnc1C(=O)Nc1ccc(F)c([C@]2(C)CS(=O)(=O)C3(CC(F)(F)C3)C(N)=N2)c1 [Example 126, (R)—N-(3-(9-amino-2,2-difluoro-7-methyl-5,5-dioxido-5-thia-8-azaspiro[3.5]non-8-en-7-yl)-4-fluorophenyl)-5-(difluoromethoxy)-3-methylpicolinamide]
0.00297 µM | 0.0058 µM | 61.8 µM | – | – | – | Cc1cc(OC(F)F)cnc1C(=O)Nc1ccc(F)c([C@@]2(C)N=C(N)C3(CCC3)S(=O)(=O)[C@@H]2F)c1 [Example 132, N-(3-((6S,7R)-9-amino-6-fluoro-7-methyl-5,5-dioxido-5-thia-8-azaspiro[3.5]non-8-en-7-yl)-4-fluorophenyl)-5-(difluoromethoxy)-3-methylpicolinamide]
0.00363 µM | 0.0064 µM | 81.3 µM | – | – | – | COc1cnc(C(=O)Nc2ccc(F)c([C@@]3(C)N=C(N)C4(CCC4)S(=O)(=O)[C@@H]3F)c2)c(C)c1 [Example 137, N-(3-((6S,7R)-9-amino-6-fluoro-7-methyl-5,5-dioxido-5-thia-8-azaspiro[3.5]non-8-en-7-yl)-4-fluorophenyl)-5-methoxy-3-methylpicolinamide]
– | – | 102 µM | 0.44 µM | – | 0.412 µM | Cc1c(CNc2cc([C@]3(C)CS(=O)(=O)C(C)(C)C(N)=N3)c(F)cn2)nc2ccc(Cl)cn12 [Example 145, (R)-5-amino-3-(2-(((6-chloro-3-methylimidazo[1,2-a]pyridin-2-yl)methyl)amino)-5-fluoropyridin-4-yl)-3,6,6-trimethyl-3,6-dihydro-2H-1,4-thiazine-1,1-dioxide]
0.0017 µM | 0.1 µM | 232 µM | – | – | – | Cc1cc(OCC2CCC2)cnc1C(=O)Nc1ccc(F)c([C@]2(CF)CS(=O)(=O)C(C)(C)C(N)=N2)c1 [Example 151, (S)—N-(3-(5-amino-3-(fluoromethyl)-6,6-dimethyl-1,1-dioxido-3,6-dihydro-2H-1,4-thiazin-3-yl)-4-fluorophenyl)-5-(cyclobutylmethoxy)-3-methylpicolinamide]
– | – | 237 µM | 4.68 µM | 3.21 µM | – | CC1(C)C(N)=N[C@](C)(c2cc(C(=O)Nc3ccc(Cl)cc3)ccc2F)CS1(=O)=O [Example 153, (R)-3-(5-amino-3,6,6-trimethyl-1,1-dioxido-3,6-dihydro-2H-1,4-thiazin-3-yl)-N-(4-chlorophenyl)-4-fluorobenzamide]
– | – | 31.2 µM | 6.06 µM | 2.39 µM | – | C[C@@]1(c2cccc(Br)c2)CS(=O)(=O)C2(CCC2)C(N)=N1 [Example 154, (R)-9-amino-7-(3-bromophenyl)-7-methyl-5-thia-8-azaspiro[3.5]non-8-ene 5,5-dioxide]
